Converted amounts (≈) assume the structure as drawn.
Assays:
CaFADS = target: T1, CaFADS (Corynebacterium ammoniagenes, UniProt Q59263); assay: Differential scanning fluorescence (thermal denaturation) binding to CaFADS; details: for Tm shift of CaFADS thermal denaturation: 2 μM CaFADS, compound up to 250 μM; for Kd: from differential scanning fluorescence data fitted to Eq 2, 20 mM PIPES pH 7.0, 10 mM MgCl2, 2% DMSO, n = 3, mean ± SD
T1 construct: made in house; host or cells: Escherichia coli BL21(DE3)
Experimental: Interaction of compounds with CaFADS was evaluated using fluorescence thermal denaturation, on the bases of the shifts in denaturation midpoints of thermal curves of the protein [65]. Denaturations were performed in a Stratagene Agilent Mx3005p qPCR instrument (Santa Clara, US) following SYPR Orange (ThermoFisher Scientific) emission fluorescence (excitation at 492 nm and emission at 610 nm), which greatly increases when this probe binds to protein hydrophobic regions becoming solvent exposed upon thermal unfolding. Solutions containing 2 μM CaFADS with the studied compound in an increasing 5-250 μM concentration range (2% residual final concentration of DMSO) and 5xSYPR Orange in 20 mM PIPES pH 7.0, 10 mM MgCl2, with a 100 μL total volume were dispensed into 96-well microplates (BRAND 96-well plates pure grade™). After an initial 1 min incubation at 25 °C within the equipment, unfolding curves were registered from 25 to 100 °C at 1 °C·min^−1. Control experiments with CaFADS samples with/without DMSO were routinely performed in each microplate. For those compounds shifting midpoint denaturation temperature, Tm, the dissociation constant, Kd, was predicted by fitting the data to the equation [66] ΔTm/Tm=NRTm0/ΔH0ln(1+[L]/Kd), (2) which estimates the extent of the ligand-induced protein stabilization/destabilization. ΔTm=|Tm-Tm0| with Tm0 and Tm being the midpoint denaturation temperatures in the absence and the presence of ligand, respectively, and ΔH0 the unfolding enthalpy of the protein in the absence of ligand.

FMNAT activity of CaFADS = target: T2, FMNAT activity of CaFADS (Corynebacterium ammoniagenes, UniProt Q59263); assay: Inhibition of the FMNAT activity of CaFADS; type: biochemical
T2 construct: made in house; host or cells: Escherichia coli BL21(DE3)
Experimental: (§1) To determine the compound’s ability to inhibit the RFK and/or the FMNAT activities of CaFADS, both enzymatic activities were quantitatively measured in the absence and presence of the compounds following previously described protocols. Reaction mixtures contained 50 μM ATP, 5 μM RF in 20 mM PIPES, pH 7.0, 0.8 mM MgCl2, when assaying the RFK activity, and 50 μM ATP, 10 μM FMN in 20 mM PIPES, pH 7.0, 10 mM MgCl2 when measuring the FMNAT reaction. Each compound was tested at 250 μM (0.5% residual final concentration of DMSO) for each of the two enzymatic reactions. The samples were pre-incubated at 25 °C, the reaction was then initiated by the addition of ∼ 40 nM CaFADS (final concentration) and allowed for 1 min. Finally, the reaction was stopped by boiling the samples for 5 min and the denatured protein was eliminated through centrifugation. The transformation of RF into FMN and FAD (RFK activity) and of FMN into FAD (FMNAT activity) was evaluated through flavins separation by HPLC (Waters), as previously described. All the experiments were performed in triplicate. To evaluate the potency of compounds as inhibitors, we took advantage of the decrease in quantum yield of fluorescence when FMN is transformed into FAD, which allows to follow such transformation in a continuous system. Measurements were carried out using a microplate reader Synergy HT multimode plate reader (Biotek) with BRAND 96-well plates pure Grade. Reaction mixtures contained 5 μM RF or FMN, and 50 μM ATP in 20 mM PIPES, pH 7.0, 10 mM MgCl2, and the inhibitor compound in a 5-250 μM concentration range (2% residual final concentration of DMSO). Reactions were initiated through addition of 0.4 μM CaFADS, being the final reaction volume 100 μL. Flavin fluorescence (excitation at 440 nm and emission at 530 nm) was registered at 25 °C, every 50 s during 15 min. The fluorescence change per time unit (ΔF/Δt) was calculated as the slope of the resulting fluorescence decays recorded between 0 and 6 min (linear decay of the fluorescence). Controls which contained the reaction mixture without the enzyme and without any potential CaFADS inhibitory compound were included in the assay and referred as the 0% and 100% of enzymatic activity, respectively. IC50 was calculated as the concentration of compound required for a 50% inhibition of the enzymatic activity.

C. ammoniagenes = assay: MIC, resazurin broth microdilution; type: cell-based, Corynebacterium ammoniagenes; details: for MIC: C. ammoniagenes; for MIC (μM) C. ammoniagenes: Table 3; for MIC C. ammoniagenes: S5 Fig legend, medium not stated
C. glutamicum = assay: MIC, resazurin broth microdilution; type: cell-based, Corynebacterium glutamicum; details: media BHI
C. diphteriae = assay: MIC, resazurin broth microdilution; type: cell-based, Corynebacterium diphteriae
M. tuberculosis = assay: MIC, resazurin broth microdilution; type: cell-based, Mycobacterium tuberculosis; details: for MIC: M. tuberculosis, media 7H9G-ADC; for MIC (μM) M. tuberculosis: Table 3
M. smegmatis = assay: MIC, resazurin broth microdilution; type: cell-based, Mycobacterium smegmatis; details: media 7H9G-ADC
S. pneumoniae = assay: MIC, resazurin broth microdilution; type: cell-based, Streptococcus pneumoniae
E. coli = assay: MIC, resazurin broth microdilution; type: cell-based, Escherichia coli; details: media LB
L. monocytogenes = assay: MIC, resazurin broth microdilution; type: cell-based, Listeria monocytogenes; details: media BHI
P. aeruginosa = assay: MIC, resazurin broth microdilution; type: cell-based, Pseudomonas aeruginosa; details: media MH
S. thyphimurium = assay: MIC, resazurin broth microdilution; type: cell-based, Salmonella thyphimurium; details: media MH
Bacillus spp. = assay: MIC, resazurin broth microdilution; type: cell-based, Bacillus sp.; details: media MH
Mycobacteriumspecies = assay: MIC against Mycobacterium species (S5 Fig legend); type: cell-based
A549 = assay: MTT cytotoxicity assay; type: cell-based; details: 24 h; for IC50: 4-512 μM range, read-out: IC50 (concentration causing 50% inhibition of cellular viability)
Experimental: (§2) The (4,5-dimethylthiazol-2-yl)-2,5-diphenyl tetrazolium bromide (MTT) assay was used to determine the effect of the compounds in cell growth and viability of HeLa (ATCC CCL-2) and A549 (ATCC CCL-185) eukaryotic cell lines. Both cell lines were routinely cultured in high-glucose DMEM (Lonza) supplemented with 10% fetal bovine serum, 4 mM glutamine GlutaMAX™ (Gibco) and 1x non-essential amino acids (Gibco), under 5% CO2 at 37 °C in a humidified atmosphere. For the MTT assay, cells were initially seeded in 96-well flat-bottom plates at a density of 10^4 cells per well and cultured for 24 h. Cultures were routinely tested for mycoplasma presence. The compounds were dissolved in fresh culture medium, added in a 4-512 μM concentration range (1% DMSO final concentration), and incubated with the cells for 24 h. Finally, formazan crystals were dissolved with pure DMSO and MTT absorbance was measured at 570 and 650 nm. Untreated cells were included as control of 100% viability. Assays were done in quadruplicate.

HeLa = assay: MTT cytotoxicity assay; type: cell-based; details: 24 h; for IC50: 4-512 μM range, read-out: IC50 (concentration causing 50% inhibition of cellular viability)
Experimental: as §2

[1] = target: T3, RFK+FMNAT CaFADS activities (Corynebacterium ammoniagenes, UniProt Q59263); assay: Inhibition of the RFK+FMNAT activity of CaFADS; type: biochemical; details: residual activity at 250 μM of compound, 25 °C
T3 construct: made in house; host or cells: Escherichia coli BL21(DE3)
Experimental: as §1

S. aureus = assay: MIC, resazurin broth microdilution; type: cell-based, Staphylococcus aureus; details: media MH
[2] = complete viability at lower concentrations

T1 sequence (Q59263 whole entry): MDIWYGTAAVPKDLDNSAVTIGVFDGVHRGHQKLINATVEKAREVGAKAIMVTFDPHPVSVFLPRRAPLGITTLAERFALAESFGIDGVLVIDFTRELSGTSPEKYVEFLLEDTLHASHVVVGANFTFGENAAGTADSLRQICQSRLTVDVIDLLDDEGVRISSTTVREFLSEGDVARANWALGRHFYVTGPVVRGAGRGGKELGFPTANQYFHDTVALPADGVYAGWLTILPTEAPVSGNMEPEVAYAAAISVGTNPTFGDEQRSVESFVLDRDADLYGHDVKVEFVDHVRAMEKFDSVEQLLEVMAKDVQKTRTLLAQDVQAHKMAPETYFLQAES
T2 sequence (Q59263 whole entry): as above
T3 sequence (Q59263 whole entry): as above

SMILES | Tm shift of CaFADS thermal denaturation (CaFADS) | Kd (CaFADS) [µM] | MIC (C. ammoniagenes; media BHI) [µM] | MIC (C. ammoniagenes; media MH) [µM] | MIC (C. ammoniagenes; media MH+DFO) [µM] | MIC (C. ammoniagenes; media MH+DIP) [µM] | MIC (C. ammoniagenes; media MH+DIP+DFO) [µM] | MIC (μM) C. ammoniagenes (C. ammoniagenes) [µM] | MIC (C. glutamicum) [µM] | MIC (C. diphteriae; media BHI) [µM] | MIC (C. diphteriae; media MH) [µM] | MIC (M. tuberculosis) [µM] | MIC (μM) M. tuberculosis (M. tuberculosis) [µM] | MIC (M. smegmatis) [µM] | MIC (S. pneumoniae; media BHI) [µM] | MIC (E. coli) [µM] | MIC (L. monocytogenes) [µM] | MIC (P. aeruginosa) [µM] | MIC (S. thyphimurium) [µM] | MIC Mycobacterium species (Mycobacteriumspecies) | also measured
O=C(Nc1ccccc1C(=O)O)OCC1c2ccccc2-c2ccccc21 [Compound C5, 2-{[(9H-9-fluorenylmethoxy)carbonyl]amino}benzoic acid] | shifted it to lower values | 1.7 ± 0.7 | > 64 | 32 (≈ 11.5 µg/mL) | 32 (≈ 11.5 µg/mL) | 32 (≈ 11.5 µg/mL) | 32 (≈ 11.5 µg/mL) | 32 (≈ 11.5 µg/mL) | 32 (≈ 11.5 µg/mL) | 64 (≈ 23 µg/mL) | 32 (≈ 11.5 µg/mL) | 128 (≈ 46 µg/mL) | 128 (≈ 46 µg/mL) | > 256 | 128 (≈ 46 µg/mL) | > 64 | > 64 | > 256 | > 256 | lower than 256 μM | inhibition of the FMNAT activity of CaFADS (FMNAT activity of CaFADS; at the maximal compound concentration assayed (250 μM)): over 90%; MIC (S. pneumoniae; media MH): 256 µM (≈ 92 µg/mL); MIC (Bacillus spp.): 32 µM (≈ 11.5 µg/mL); IC50 (A549): > 512 µM; IC50 (HeLa): > 512 µM
CC(C)c1ccc(NC(=S)NNC(=O)NC(=O)c2csc([N+](=O)[O-])c2)cc1 [Compound C6, N-({2-[(4-isopropylanilino)carbothioyl]hydrazino}carbonyl)-5-nitrothiophene-3-carboxamide] | more than 3 degrees | 41 ± 3 | > 64 | 128 (≈ 52.2 µg/mL) | 128 (≈ 52.2 µg/mL) | 128 (≈ 52.2 µg/mL) | 128 (≈ 52.2 µg/mL) | 128 (≈ 52.2 µg/mL) | > 64 | > 64 | 128 (≈ 52.2 µg/mL) |  | 128 (≈ 52.2 µg/mL) | > 256 | > 256 | > 64 | > 64 | > 256 | > 256 | lower than 256 μM | FMNAT % Res. act. 250 μM (FMNAT activity of CaFADS; residual activity at 250 μM of compound, 25 °C): 48 ± 6%; RFK+FMNAT % Res. act. 250 μM [1]: 57 ± 3%; MIC C. ammoniagenes (C. ammoniagenes): lower than 256 μM; MIC (S. pneumoniae; media MH): 64 µM (≈ 26.1 µg/mL); MIC (S. aureus): > 256 µM; IC50 (A549): > 512 µM; IC50 (HeLa): > 512 µM
CC1(C)c2ccccc2-n2c1cc1oc(=O)cc(O)c1c2=O [Compound C27, 4-hydroxy-11,11-dimethyl-5,11-dihydro-2H-pyrano[2',3':4,5]pyrido[1,2-a]indole-2,5-dione] |  |  |  | 128 (≈ 37.8 µg/mL) | 128 (≈ 37.8 µg/mL) | 64 (≈ 18.9 µg/mL) | 128 (≈ 37.8 µg/mL) | 128 (≈ 37.8 µg/mL) | 64 (≈ 18.9 µg/mL) |  | 64 (≈ 18.9 µg/mL) | 256 (≈ 75.6 µg/mL) | 256 (≈ 75.6 µg/mL) |  |  | > 256 | 64 (≈ 18.9 µg/mL) | > 256 | > 256 | lower than 256 μM | MIC C. ammoniagenes (C. ammoniagenes): lower than 256 μM; MIC (S. aureus): 64 µM (≈ 18.9 µg/mL); MIC (Bacillus spp.): 32 µM (≈ 9.45 µg/mL); concentration range with moderate cytotoxicity (A549; [2]): 256 to 512 µM; concentration range with moderate cytotoxicity (HeLa; [2]): 256 to 512 µM
